Where a name gives a salt, the structure may show the parent alone. Read-outs that look alike come from different tables or passages of the source.
Legend:
[1] = Solubility in test media, saturated solutions, HPLC; assay type: physicochemical; conditions: ca. 20° C.; for solubility at 20 min: thermodynamic from solid
Description: Solubility studies were carried out on a number of anagrelide derivatives according to the present invention in various test media. The test media were; • a) singly distilled water (pH 5.0)—note no attempt was made to remove dissolved CO2. • b) 50 mM ammonium formate (pH 7.9) • c) 0.1 M hydrochloric acid (pH 0.6)
Calibration plots of HPLC peak area vs. concentration were obtained in MeOH or MeOH/DMSO over the range 1000-1 μg/ml for each substance at a temperature 20-22° C. The HPLC method used a reverse phase C18 column with a water (0.6% formic acid) and acetonitrile gradient. For the solubility studies, saturated solutions were prepared by dissolving in the desired medium with the aid of an ultrasonic bath for 20 minutes and the excess solid removed by centrifugation. The concentration of the substance in the supernatant liquid was determined from the measured peak area.

[2] = test system: human phosphodiesterase III (PDE III); assay: In vitro PDE III inhibition (human enzyme); assay type: biochemical
[3] = test system: megakaryocytopoiesis (human cell-line); assay: In vitro anti-megakaryocytic activity in a model of megakaryocytopoiesis (human cell-line); assay type: cell-based
Description: Assessment of the in vitro anti-megakaryocytic activity—and potentially therefore the platelet lowering capability—of the 3-substituted analogues of anagrelide was conducted using a well established model of megakaryocytopoiesis (Cohen-Solal et at, Thromb. Haemost. 1997, 78:37-41 and Cramer et al, Blood, 1997, 89:2336-46). It can be readily seen that with anagrelide the benefit ratio (therapeutic to adverse effects) was comparatively low at 0.024:1 (after accounting for the predominant exposure to the cardioactive metabolite in vivo).

[4] = target: human phosphodiesterase III (PDE III); conditions: background, cited from earlier work; for IC50: read-out: IC50 as PDE III inhibitor
[5] = In vitro metabolic stability in dog hepatocytes; assay type: in vitro ADME
Description: (§1) This comparatively longer half-life for 3,3 dimethyl anagrelide observed in the dog was mirrored in an in vitro metabolic stability study in which it was clearly much more metabolically stable than anagrelide (see table below). Hepatic metabolism is known to be the principal mechanism of clearance of anagrelide in both animals and in man.

[6] = test system: dog heart rate; assay: In vivo cardiovascular effects on dog heart rate
Description: (§2) A comparison of the in vivo cardiovascular effects of anagrelide, its active metabolite and a representative example of an improved analogue shown in the table below:—

[7] = test system: heart rate; assay: In vivo cardiovascular effects on dog heart rate; conditions: in vivo
Description: as §2

[8] = In vitro metabolic stability in human hepatocytes; assay type: in vitro ADME
Description: as §1

[9] = cited from earlier work
[10] = Pharmacokinetics in the conscious dog model; assay type: in vivo; conditions: geometric mean ± % CV
Description: A comparison of the pharmacokinetic profile in the dog of anagrelide and a representative 3-substituted analogue is shown below:—
Comparative Pharmacokinetics of Anagrelide, its Resultant Active Metabolite and a Representative 3-Substituted Analogue Follow 1 mg/kg iv in the Conscious Dog Model

[11] = test system: erythroid or myelomonocytic differentiation; conditions: stimulated by erythropoietin or granulocyte-macrophage colony-stimulating factor; cited from earlier work
[12] = test system: megakaryocytopoiesis (human cell-line); conditions: background; cited from earlier work
[13] = Example 1 table, read-out: IC50 for PDE III inhibition (cardiovascular effects)
[14] = Example 1 table, read-out: IC50 for anti-megakaryocytic (platelet lowering) activity
[15] = read-out: In vitro IC50 for PDE III inhibition (human enzyme)
[16] = read-out: In vitro IC50 for anti-megakaryocytic effects (human cell-line)

What does the source list for `C=c1c(=O)[nH]c2n1Cc1c(ccc(Cl)c1Cl)N=2` [3-Methyleneanagrelide, 3-methyleneanagrelide]?
Solubility in hydrochloric acid (0.1M, pH 0.6) ([1]; 0.1M HCl, pH 0.6): 43 μg mL^−1; Solubility in ammonium formate (50 mM, pH 7.9) ([1]; ammonium formate 50 mM, pH 7.9): 5 μg mL^−1; Solubility in water (pH 5.0) ([1]; singly distilled water, pH 5.0): 9 μg mL^−1

What does the source list for `Br.O=C1NC2=Nc3ccc(Cl)c(Cl)c3CN2C12CC2` [3,3-spiro-Cyclopropyl-anagrelide hydrobromide]?
Solubility in hydrochloric acid (0.1M, pH 0.6) ([1]; 0.1M HCl, pH 0.6): 35 μg mL^−1; Solubility in ammonium formate (50 mM, pH 7.9) ([1]; ammonium formate 50 mM, pH 7.9): 1 μg mL^−1; Solubility in water (pH 5.0) ([1]; singly distilled water, pH 5.0): 2 μg mL^−1

What does the source list for `C[C@@H]1C(=O)NC2=Nc3ccc(Cl)c(Cl)c3CN21` [(R)-3-methyl anagrelide]?
PDE III inhibitory activity (in words) [2]: significantly reduced PDE III inhibition relative to 3-OH anagrelide; Anti-megakaryocytic activity (in words) [3]: good anti-megakaryocytic activity

With `C=c1c(=O)[n-]c2n1Cc1c(ccc(Cl)c1Cl)N=2.[Na+]` [3-Methyleneanagrelide Na salt] as the compound, how does the “Solubility in hydrochloric acid (0.1M, pH 0.6)” value ([1]; 0.1M HCl, pH 0.6) read?
The value was 189 μg mL^−1.

And the “Solubility in ammonium formate (50 mM, pH 7.9)” value ([1]; ammonium formate 50 mM, pH 7.9)?
The value was 39 μg mL^−1.

What about the “Solubility in water (pH 5.0)” value ([1]; singly distilled water, pH 5.0) of the same compound?
Its value is 1830 μg mL^−1.

Which IC50 [2, 13] does the source give for `O=C1NC2=Nc3ccc(Cl)c(Cl)c3CN2C12CC2` [3-spirocyclo propyl anagrelide, 3,3,spiro-cyclopropyl-anagrelide] here?
The IC50 was 797 nM.

What about the IC50 [3, 14] of the same compound?
The IC50 was 547 nM.

Which “PDE III inhibitory activity (in words)” value [2] does the source give for `C[C@H]1C(=O)NC2=Nc3ccc(Cl)c(Cl)c3CN21` [(S)-3-methyl anagrelide] here?
The value was “significantly reduced PDE III inhibition relative to 3-OH anagrelide”.

What about the “Anti-megakaryocytic activity (in words)” value [3] of the same compound?
Its value is “good anti-megakaryocytic activity”.

With `Cc1[nH]c(=O)c(C#N)cc1-c1ccncc1` [milrinone] as the compound, how does the IC50 [4] read?
Its IC50 is 170 to 350 nM.

Which results are given for `O=C1[N-]C2=Nc3ccc(Cl)c(Cl)c3CN2C12CC2.[Na+]` [3,3,Spiro-Cyclopropyl-anagrelide sodium salt]?
Solubility in hydrochloric acid (0.1M, pH 0.6) ([1]; 0.1M HCl, pH 0.6): 28 μg mL^−1; Solubility in ammonium formate (50 mM, pH 7.9) ([1]; ammonium formate 50 mM, pH 7.9): 1 μg mL^−1; Solubility in water (pH 5.0) ([1]; singly distilled water, pH 5.0): 542 μg mL^−1

Which results are given for `Br.CC1(C)C(=O)NC2=Nc3ccc(Cl)c(Cl)c3CN21` [3,3-Dimethylanagrelide hydrobromide]?
Solubility in hydrochloric acid (0.1M, pH 0.6) ([1]; 0.1M HCl, pH 0.6): 215 μg mL^−1; Solubility in ammonium formate (50 mM, pH 7.9) ([1]; ammonium formate 50 mM, pH 7.9): 4 μg mL^−1; Solubility in water (pH 5.0) ([1]; singly distilled water, pH 5.0): 20 μg mL^−1

Which results are given for `O=C1CN2Cc3c(ccc(Cl)c3Cl)N=C2N1` [Anagrelide, 6,7-dichloro-1,5-dihydroimidazo[2,1-b]-quinazolin-2(3H)-one hydrochloride monohydrate]?
half-life [5]: 1.25 h; IC50 [4]: ~29 nM; IC50 [2, 13]: 32 nM; IC50 [2, 15]: 29 nM; In vivo ED20 for effects on dog heart rate [6]: 376 µg/kg; ED50 [7]: 0.986 mg/kg; half-life [8]: 6.62 h; First pass effect ([9]; background): > 50%; clearance ([10]; in vivo, after 1 mg/kg iv): 19.3 mL/min/kg; Vd ([10]; in vivo, after 1 mg/kg iv, read-out: Vss): 1.011 ± 0.0038 L/kg; half-life ([10]; in vivo, intravenous, 1 mg/kg): 1.37 h; AUC(0-t) ([10]; in vivo, intravenous, 1 mg/kg, read-out: AUC(0-t)): 101 ± 15 ng·h/mL; Cmax ([10]; in vivo, intravenous, 1 mg/kg, read-out: Cmax): 48.1 ± 21 ng/mL; Effect on erythroid or myelomonocytic differentiation (in words) [11]: does not affect erythroid or myelomonocytic differentiation; IC50 ([3]; Homo sapiens, Platelet, Example 1 table, read-out: IC50 for anti-megakaryocytic (platelet lowering) activity): 27 nM; IC50 ([3]; Homo sapiens, read-out: In vitro IC50 for anti-megakaryocytic effects (human cell-line)): 26 nM

Which “Potency as PDE III inhibitor relative to anagrelide” value ([4]; more potent than anagrelide) does the source give for `O=C1NC2=Nc3ccc(Cl)c(Cl)c3CN2C1O` (stereo not shown) [3-hydroxy anagrelide, 3-hydroxyanagrelide] here?
Its value is “over 40 fold”.

What about the “Inhibition of megakaryocytopoiesis relative to parent drug (in words)” value [12] of the same compound?
Its value is “no more potent than the parent drug”.

And the IC50 [2, 13]?
Its IC50 is 0.7 nM.

And the IC50 [2, 15]?
Its IC50 is 0.7 nM.

And the “In vivo ED20 for effects on dog heart rate” value [6]?
Its value is 7.1 µg/kg.

What about the “In vivo ED50 for effects on dog heart rate” value [6] of the same compound?
The value was 11.72 ug/kg μg/kg.

What about the “In vivo exposure relative to parent drug” value ([9]; after anagrelide treatment) of the same compound?
Its value is 2-3 fold.

What about the Typical half-life ([9]; background, patients) of the same compound?
The Typical half-life was 2.5 h.

What about the “AUC(0-t)” value ([10]; 1 mg/kg) of the same compound?
Its value is 179 ± 14 ng·h/mL.

And the Cmax ([10]; 1 mg/kg)?
Its Cmax is 60.1 ± 14 ng/mL.

What about the T1/2 ([10]; 1 mg/kg) of the same compound?
Its T1/2 is 1.57 ± 24 h.

What about the IC50 [3, 14] of the same compound?
The IC50 was 44 nM.

And the IC50 [3, 16]?
The IC50 was 44 nM.

Which results are given for `O=C1CN2Cc3c(ccc(Cl)c3Cl)N=C2N1` [Anagrelide hydrochloride, 6,7-dichloro-1,5-dihydroimidazo[2,1-b]-quinazolin-2(3H)-one hydrochloride monohydrate, reference compound]?
solubility at 20 min ([1]; 50 mM ammonium formate, aqueous buffer, ammonium formate 50 mM, pH 7.9, read-out: Solubility in ammonium formate (50 mM, pH 7.9)): 10 µg/mL; solubility at 20 min ([1]; 0.1 M hydrochloric acid, simulated gastric fluid, 0.1M HCl, pH 0.6, read-out: Solubility in hydrochloric acid (0.1M, pH 0.6)): 169 µg/mL; solubility at 20 min ([1]; singly distilled water, pH 5.0, read-out: Solubility in water (pH 5.0)): 11 µg/mL

For `CC1(C)C(=O)[N-]C2=Nc3ccc(Cl)c(Cl)c3CN21.[Na+]` [3,3-Dimethylanagrelide sodium salt], which “Solubility in hydrochloric acid (0.1M, pH 0.6)” value ([1]; 0.1M HCl, pH 0.6) is on record?
The value was 212 μg mL^−1.

What about the “Solubility in ammonium formate (50 mM, pH 7.9)” value ([1]; ammonium formate 50 mM, pH 7.9) of the same compound?
The value was 6 μg mL^−1.

And the “Solubility in water (pH 5.0)” value ([1]; singly distilled water, pH 5.0)?
The value was 409 μg mL^−1.

Which “In vitro "half-life" in dog hepatocytes” value [5] does the source give for `CC1(C)C(=O)NC2=Nc3ccc(Cl)c(Cl)c3CN21` [3,3 dimethyl anagrelide, 3,3-dimethylanagrelide] here?
Its value is “No apparent degradation”.

What about the IC50 [2, 13] of the same compound?
The IC50 was 166 nM.

What about the IC50 [2, 15] of the same compound?
The IC50 was 164 nM.

And the “In vivo ED20 for effects on dog heart rate” value [6]?
The value was 2,512 μg/kg.

And the “In vivo ED50 for effects on dog heart rate” value [6]?
Its value is 3,557 ug/kg μg/kg.

What about the “In vitro "half-life" in human hepatocytes” value [8] of the same compound?
The value was 22.8 h.

What about the “AUC(0-t)” value ([10]; 1 mg/kg) of the same compound?
The value was 1903 ± 47 ng·h/mL.

And the Cmax ([10]; 1 mg/kg)?
The Cmax was 167 ± 33 ng/mL.

And the T1/2 ([10]; 1 mg/kg)?
Its T1/2 is 9.39 h.

And the CL ([10]; after 1 mg/kg iv)?
Its CL is 2.97 ± 0.765 mL/min/kg.

And the Vss ([10]; after 1 mg/kg iv)?
Its Vss is 1.967 ± 0.024 L/kg.

What about the IC50 [3, 14] of the same compound?
The IC50 was 164 nM.

And the IC50 [3, 16]?
The IC50 was 166 nM.

Reference: patent publication US7910597B2, “Substituted quinazolines” (Shire LLC, priority 2006, dated 2011)
